Each compound was assayed against T1, Dipeptidyl Peptidase-IV (DPP-IV) (Homo sapiens, UniProt P27487) (assay: Measurement of DPP-IV Activity-Inhibiting Ability (fluorescent substrate Ac-Gly-Pro-AFC)). Conditions: 25° C., 50 mmol HEPES (pH 7.4), DP-IV 7.1 nM, enzyme reaction for 1 hour.
T1 construct: made in house
Type: biochemical
Procedure, shortened: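 Baculovirus-expressed, nickel-purified enzyme (7.1 nM) was reacted with 100 µM Ac-Gly-Pro-AFC in 50 mmol HEPES pH 7.4 at 25 °C across a range of inhibitor concentrations. Product fluorescence was read at excitation 400 nm and emission 505 nm.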

T1 sequence (P27487 whole entry): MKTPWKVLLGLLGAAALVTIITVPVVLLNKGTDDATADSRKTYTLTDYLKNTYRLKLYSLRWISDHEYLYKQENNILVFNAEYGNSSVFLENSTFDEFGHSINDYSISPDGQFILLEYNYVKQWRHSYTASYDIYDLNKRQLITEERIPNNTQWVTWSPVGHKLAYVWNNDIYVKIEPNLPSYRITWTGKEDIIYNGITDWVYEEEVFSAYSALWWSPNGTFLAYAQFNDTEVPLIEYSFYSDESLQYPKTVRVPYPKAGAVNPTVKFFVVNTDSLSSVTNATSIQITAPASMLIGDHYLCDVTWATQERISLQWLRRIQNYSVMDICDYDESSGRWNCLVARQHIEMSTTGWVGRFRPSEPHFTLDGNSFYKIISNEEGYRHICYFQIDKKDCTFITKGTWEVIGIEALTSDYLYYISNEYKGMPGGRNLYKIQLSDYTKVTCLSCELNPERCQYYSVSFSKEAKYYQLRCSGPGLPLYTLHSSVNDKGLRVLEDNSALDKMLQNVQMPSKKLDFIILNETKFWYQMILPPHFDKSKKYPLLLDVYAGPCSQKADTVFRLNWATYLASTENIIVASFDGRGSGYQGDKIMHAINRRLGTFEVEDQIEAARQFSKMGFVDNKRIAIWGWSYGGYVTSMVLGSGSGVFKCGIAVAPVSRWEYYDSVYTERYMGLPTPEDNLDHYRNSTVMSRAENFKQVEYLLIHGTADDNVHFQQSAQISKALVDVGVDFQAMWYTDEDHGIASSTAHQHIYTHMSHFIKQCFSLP

Row | SMILES | IC50 [nM]
1 | CC(C)(C)c1nc2c(c(C(F)(F)F)n1)CCN(C(=O)C[C@H](N)CN1CC(F)(F)CCC1=O)C2 [Ex. 92, 1-{(2S)-2-amino-4-[2-t-butyl-4-(trifluoromethyl)-5,8-dihydropyrido[3,4-d]pyrimidin-7(6H)-yl]-4-oxobutyl}-5,5-difluoropiperidin-2-one] | 48
2 | CCc1nc2c(c(C(F)(F)F)n1)CCN(C(=O)C[C@H](N)CN1C[C@H](C)CCC1=O)C2 [Ex. 95, (5R)-1-{(2S)-2-amino-4-[2-ethyl-4-(trifluoromethyl)-5,8-dihydropyrido[3,4-d]pyrimidin-7(6H)-yl]-4-oxobutyl}-5-methylpiperidin-2-one] | 13
3 | C[C@@H]1CCC(=O)N(C[C@@H](N)CC(=O)N2CCc3c(nc(C(F)(F)C(F)(F)F)nc3C(F)(F)F)C2)C1 [Ex. 96, (5R)-1-{(2S)-2-amino-4-oxo-4-[2-(pentafluoroethyl)-4-(trifluoromethyl)-5,8-dihydropyrido[3,4-d]pyrimidin-7(6H)-yl]butyl}-5-methylpiperidin-2-one] | 7
4 | C[C@H]1CN(C[C@@H](N)CC(=O)N2CCc3c(nc(C(F)(F)C(F)(F)F)nc3C(F)(F)F)C2)C(=O)CO1 [Ex. 97, (6S)-4-{(2S)-2-amino-4-oxo-4-[2-(pentafluoroethyl)-4-(trifluoromethyl)-5,8-dihydropyrido[3,4-d]pyrimidin-7(6H)-yl]butyl}-6-methylmorpholine-3-one] | 57
5 | CCCc1nc2c(c(C(F)(F)F)n1)CCN(C(=O)C[C@H](N)CN1C[C@H](C)CCC1=O)C2 [Ex. 99, (5R)-1-{(2S)-2-amino-4-oxo-4-[2-propyl-4-(trifluoromethyl)-5,8-dihydropyrido[3,4-d]pyrimidin-7(6H)-yl]butyl}-5-methylpiperidin-2-one] | 19
6 | CCCc1nc2c(c(C(F)(F)F)n1)CCN(C(=O)C[C@H](N)CN1CC(F)(F)CCC1=O)C2 [Ex. 100, 1-{(2S)-2-amino-4-oxo-4-[2-propyl-4-(trifluoromethyl)-5,8-dihydropyrido[3,4-d]pyrimidin-7(6H)-yl]butyl}-5,5-difluoropiperidin-2-one] | 18
7 | C[C@@H]1CCC(=O)N(C[C@@H](N)CC(=O)N2CCc3c(nc(CF)nc3C(F)(F)F)C2)C1 [Ex. 101, (5R)-1-{(2S)-2-amino-4-[2-(fluoromethyl)-4-(trifluoromethyl)-5,8-dihydropyrido[3,4-d]pyrimidin-7(6H)-yl]-4-oxobutyl}-5-methylpiperidin-2-one] | 21
8 | CC1=CC(=O)N(C[C@@H](N)CC(=O)N2CCc3c(nc(C(F)(F)F)nc3C(F)(F)F)C2)C1 [Ex. 103, 1-{(2S)-2-amino-4-[2,4-bis(trifluoromethyl)-5,8-dihydropyrido[3,4-d]pyrimidin-7(6H)-yl]-4-oxobutyl}-4-methyl-1,5-dihydro-2H-pyrrol-2-one] | 74
9 | CC1=CC(=O)N(C[C@@H](N)CC(=O)N2CCc3c(nc(-c4ccoc4)nc3C(F)(F)F)C2)C1 [Ex. 104, 1-{(2S)-2-amino-4-[2-(3-furyl)-4-(trifluoromethyl)-5,8-dihydropyrido[3,4-d]pyrimidin-7(6H)-yl]-4-oxobutyl}-4-methyl-1,5-dihydro-2H-pyrrol-2-one] | 110
10 | CC1CC(=O)N(C[C@@H](N)CC(=O)N2CCc3c(nc(-c4ccoc4)nc3C(F)(F)F)C2)C1 (stereo partly drawn) [Ex. 106, 1-{(2S)-2-amino-4-[2-(3-furyl)-4-(trifluoromethyl)-5,8-dihydropyrido[3,4-d]pyrimidin-7(6H)-yl]-4-oxobutyl}-4-methylpyrrolidin-2-one] | 45
11 | N[C@@H](CC(=O)N1CCc2c(nc(C(F)(F)F)nc2C(F)(F)F)C1)CN1CC(C(F)(F)F)CCC1=O (stereo partly drawn) [Ex. 107, 1-{(2S)-2-amino-4-[2,4-bis(trifluoromethyl)-5,8-dihydropyrido[3,4-d]pyrimidin-7(6H)-yl]-4-oxobutyl}-5-(trifluoromethyl)piperidin-2-one] | 636
12 | N[C@@H](CC(=O)N1CCc2c(nc(C(F)(F)F)nc2C(F)(F)F)C1)CN1CC(C(F)(F)F)CC1=O (stereo partly drawn) [Ex. 108, 1-{(2S)-2-amino-4-[2,4-bis(trifluoromethyl)-5,8-dihydropyrido[3,4-d]pyrimidin-7(6H)-yl]-4-oxobutyl}-4-(trifluoromethyl)pyrrolidin-2-one] | 54
13 | N[C@@H](CC(=O)N1CCc2c(nc(-c3ccoc3)nc2C(F)(F)F)C1)CN1CC(C(F)(F)F)CC1=O (stereo partly drawn) [Ex. 109, 1-{(2S)-2-amino-4-[2-(3-furyl)-4-(trifluoromethyl)-5,8-dihydropyrido[3,4-d]pyrimidin-7(6H)-yl]-4-oxobutyl}-4-(trifluoromethyl)pyrrolidin-2-one] | 55
14 | CC1CCN(C[C@@H](N)CC(=O)N2CCc3c(nc(C(F)(F)F)nc3C(F)(F)F)C2)C(=O)C1 (stereo partly drawn) [Ex. 110, 1-{(2S)-2-amino-4-[2,4-bis(trifluoromethyl)-5,8-dihydropyrido[3,4-d]pyrimidin-7(6H)-yl]-4-oxobutyl}-4-methyloxopiperidin-2-one] | 56

Now from value to compound:

Row | IC50 [nM] | SMILES
15 | 55 | C[C@H]1CN(C[C@@H](N)CC(=O)N2CCc3c(nc(C(C)(C)C)nc3C(F)(F)F)C2)C(=O)CO1 [Ex. 93]
16 | 238 | CC1CN(C[C@@H](N)CC(=O)N2CCn3c(nnc3C(F)(F)F)C2)C(=O)CS1 (stereo partly drawn) [Ex. 94, 4-{(2S)-2-amino-4-oxo-4-[3-(trifluoromethyl)-5,6-dihydro[1,2,4]triazolo[4,3-a]pyrazin-7(8H)-yl]butyl}-6-methylthiomorpholin-3-one]
17 | 68 | N[C@@H](CC(=O)N1CCc2c(nc(C(F)(F)C(F)(F)F)nc2C(F)(F)F)C1)CN1CC(F)(F)CCC1=O [Ex. 98, 1-{(2S)-2-amino-4-oxo-4-[2-(pentafluoroethyl)-4-(trifluoromethyl)-5,8-dihydropyrido[3,4-d]pyrimidin-7(6H)-yl]butyl}-5,5-difluoropiperidin-2-one]
18 | 29 | N[C@@H](CC(=O)N1CCc2c(nc(CF)nc2C(F)(F)F)C1)CN1CC(F)(F)CCC1=O [Ex. 102, 1-{(2S)-2-amino-4-[2-(fluoromethyl)-4-(trifluoromethyl)-5,8-dihydropyrido[3,4-d]pyrimidin-7(6H)-yl]-4-oxobutyl}-5,5-difluoropiperidin-2-one]
19 | 59 | CC1CC(=O)N(C[C@@H](N)CC(=O)N2CCc3c(nc(C(F)(F)F)nc3C(F)(F)F)C2)C1 (stereo partly drawn) [Ex. 105, 1-{(2S)-2-amino-4-[2,4-bis(trifluoromethyl)-5,8-dihydropyrido[3,4-d]pyrimidin-7(6H)-yl]-4-oxobutyl}-4-methyloxopyrrolidin-2-one]
20 | 70 | CC1CCN(C[C@@H](N)CC(=O)N2CCc3c(nc(-c4ccoc4)nc3C(F)(F)F)C2)C(=O)C1 (stereo partly drawn) [Ex. 111, 1-{(2S)-2-amino-4-[2-(3-furyl)-4-(trifluoromethyl)-5,8-dihydropyrido[3,4-d]pyrimidin-7(6H)-yl]-4-oxobutyl}-4-methylpiperidin-2-one]
21 | 10 | C[C@@H]1CCC(=O)N(C[C@@H](N)CC(=O)N2CCc3c(nc(C4CCC4)nc3C(F)(F)F)C2)C1 [Ex. 112, (5R)-1-{(2S)-2-amino-4-[2-cyclobutyl-4-(trifluoromethyl)-5,8-dihydropyrido[3,4-d]pyrimidin-7(6H)-yl]-4-oxobutyl}-5-methylpiperidin-2-one]
22 | 13 | N[C@@H](CC(=O)N1CCc2c(nc(C3CCC3)nc2C(F)(F)F)C1)CN1CC(F)(F)CCC1=O [Ex. 113, 1-{(2S)-2-amino-4-[2-cyclobutyl-4-(trifluoromethyl)-5,8-dihydropyrido[3,4-d]pyrimidin-7(6H)-yl]-4-oxobutyl}-5,5-difluoropiperidin-2-one]

Source: patent publication US7879848B2, “Dipeptidyl Peptidase-IV inhibiting compounds, method of preparing the same, and pharmaceutical compositions containing the same as an active agent” (LG Life Sciences, Ltd., priority 2005, dated 2011)
